Experimental data published in patent US9718805B2, “Triazole compounds and their use as gamma secretase modulators” (Acturum Life Science AB, priority 2013, dated 2017).

Tests used:
[1] = tested on: Aβ42 formation in HEK cell line stably expressing APP with the Swedish mutation (APPswe); test: HEK assay (Aβ42 secreted to cell medium, Meso Scale electrochemiluminescence); type: cell-based; conditions: Homo sapiens, HEK293; HEK cells expressing APPswe; 4-6 hours incubation with test compound; read-out: pIC50 Aβ42 HEK assay (converted)
Description: (§1) The level of activity of the compounds on Aβ formation was tested using the following methods:
Compounds were diluted in 100% DMSO and stored at 20° C. prior to use. Human Embryonic Kidney (HEK) cell line stably expressing APP with the Swedish mutation (APPswe) was cultured using Dulbecco's Modified Eagles medium (DMEM) supplied with […] glucose, Na-pyruvate and GlutaMAX, 10% Foetal bovine serum, 100 U/mL penicillin-streptomycin (PEST), 1× non-essential amino acids (NEAA), […] Hepes, 100 μg/mL Zeocine. Cells at about 80% confluence were washed with PBS, detached from culture flasks using 1×Trypsin/EDTA diluted in PBS, re-suspended in cell media and plated in 384-well poly-d-lysine coated cell culture plates at about 10000-15000 cells/well, in 25 μL cell media. Optionally, cryo-preserved cells (frozen and stored at −140° C. in 90% cell media and 10% DMSO) were thawed, washed and plated as above. Next the cells were incubated for 15-24 h at 37° C. and 5% CO2, after which cell medium was changed. Fresh medium containing test compound diluted ×200 from prepared compound plate was added to the cells before further incubation for 4-6 hours at 37° C. and 5% CO2. After incubation with test compound the amount of Aβ peptides, including Aβ42, Aβ40, Aβ39, Aβ38 and Aβ37, secreted to cell medium was analyzed using the electrochemiluminescence assay technology from Meso Scale Discovery Technology, in combination with specific antibodies raised against the different Aβ peptides. Potential cytotoxic effects of the compounds were assayed by measuring the ATP content (ViaLight) from cell lysate.

[2] = tested on: Aβ42 formation in primary cortical neuronal cells (PCN); test: PCN assay (Aβ42 secreted by primary cortical neuronal cells, ELISA); type: cell-based; conditions: mouse primary cortical neuronal cells; 16-20 hours incubation with test compound; read-out: pIC50 Aβ42 PCN assay (converted)
Description: as §1
Compounds were diluted in 100% DMSO and stored at 20° C. prior to use. Primary cortical neuronal cells (PCN) were isolated from 16-day mouse embryos and cultured in Ham's F12 media containing 10% Foetal bovine serum, 10 mM Hepes, 2 mM L-glutamine and 100 U/ml Penicillin-Streptomycin. 150000-250000 cells/well, in 200 μl cell media were seeded onto 96-well poly-D-Lysine coated plates. After incubation at 37° C., 5% CO2 for five days, the media was exchanged for fresh medium containing test compound diluted ×100, before further incubation for 16-20 hours at 37° C. and 5% CO2. After incubation with test compound the amount of Aβ42 peptides secreted to cell medium was analyzed using the solid phase sandwich Enzyme-Linked-Immuno-Sorbent Assay (ELISA)-kit from Invitrogen for detection of mouse βAmyloid 1-42. Potential cytotoxic effects of the compounds were assayed by measuring the ATP content (Via Light) from cell lysate.

Row | IC50 [2] | Structure (SMILES) | IC50 [1]
1 |  | COc1cc(Nc2nc(N(CC3CC3)CC3CC3)n(C)n2)ccc1-n1cnc(C)c1 [Example 2, 5-N,5-N-Bis(cyclopropylmethyl)-3-N-[3-methoxy-4-(4-methyl-1H-imidazol-1-yl)phenyl]-1-methyl-1H-1,2,4-triazole-3,5-diamine] | 63.1 nM
2 | 20 nM | COc1cc(Nc2nc(N(C)Cc3ccccc3)n(CC(C)(C)O)n2)ccc1-n1cnc(C)c1 [Example 7, 1-{5-[Benzyl(methyl)amino]-3-{[3-methoxy-4-(4-methyl-1H-imidazol-1-yl)phenyl]amino}-1H-1,2,4-triazol-1-yl}-2-methylpropan-2-ol] | 15.8 nM
3 | 158 nM | COc1cc(Nc2nc(NCC3CC3)n(C)n2)ccc1-n1cnc(C)c1 [Example 1, N^5-(Cyclopropylmethyl)-N^3-[3-methoxy-4-(4-methyl-1H-imidazol-1-yl)phenyl]-1-methyl-1H-1,2,4-triazole-3,5-diamine] | 79.4 nM
4 |  | COc1cc(Nc2nc(N(C)CC(C)(C)O)n(Cc3ccccc3)n2)ccc1-n1cnc(C)c1 [Example 4, 1-[(1-Benzyl-3-{[3-methoxy-4-(4-methyl-1H-imidazol-1-yl)phenyl]amino}-1H-1,2,4-triazol-5-yl)(methyl)amino]-2-methylpropan-2-ol] | 100 nM
5 |  | COc1cc(Nc2nc(NCC3CC3)n(CC(C)C)n2)ccc1-n1cnc(C)c1 [Example 3, 5-N-(Cyclopropylmethyl)-3-N-[3-methoxy-4-(4-methyl-1H-imidazol-1-yl)phenyl]-1-(2-methylpropyl)-1H-1,2,4-triazole-3,5-diamine] | 63.1 nM
6 | 15.8 nM | COc1cc(Nc2nc(NCc3ccccc3)n(CC(C)(C)O)n2)ccc1-n1cnc(C)c1 [Example 6, 1-[5-(Benzylamino)-3-{[3-methoxy-4-(4-methyl-1H-imidazol-1-yl)phenyl]amino}1H-1,2,4-triazol-1-yl]-2-methylpropan-2-ol] | 20 nM
7 |  | COc1cc(Nc2nc(N(C)CC3CC3)n(CC(C)(C)O)n2)ccc1-n1cnc(C)c1 [Example 5, 1-{5-[(Cyclopropylmethyl)(methyl)amino]-3-{[3-methoxy-4-(4-methyl-1H-imidazol-1-yl)-phenyl]amino}-1H-1,2,4-triazol-1-yl}-2-methylpropan-2-ol] | 79.4 nM
